Reference: ChEMBL document CHEMBL2073841, “ATP-dependent transport of aflatoxin B1 and its glutathione conjugates by the product of the multidrug resistance protein (MRP) gene” (Mol Pharmacol, 1997)

Target: MRP1 (Multidrug resistance-associated protein 1) (Homo sapiens, UniProt P33527)
Test: TP_TRANSPORTER: uptake in membrane vesicle from MRP1-expressing HeLa cells
Format: functional, cell membranes
Details: membrane vesicles from MRP1-expressing HeLa cells

Sequence of MRP1 (Multidrug resistance-associated protein 1) (P33527 whole entry): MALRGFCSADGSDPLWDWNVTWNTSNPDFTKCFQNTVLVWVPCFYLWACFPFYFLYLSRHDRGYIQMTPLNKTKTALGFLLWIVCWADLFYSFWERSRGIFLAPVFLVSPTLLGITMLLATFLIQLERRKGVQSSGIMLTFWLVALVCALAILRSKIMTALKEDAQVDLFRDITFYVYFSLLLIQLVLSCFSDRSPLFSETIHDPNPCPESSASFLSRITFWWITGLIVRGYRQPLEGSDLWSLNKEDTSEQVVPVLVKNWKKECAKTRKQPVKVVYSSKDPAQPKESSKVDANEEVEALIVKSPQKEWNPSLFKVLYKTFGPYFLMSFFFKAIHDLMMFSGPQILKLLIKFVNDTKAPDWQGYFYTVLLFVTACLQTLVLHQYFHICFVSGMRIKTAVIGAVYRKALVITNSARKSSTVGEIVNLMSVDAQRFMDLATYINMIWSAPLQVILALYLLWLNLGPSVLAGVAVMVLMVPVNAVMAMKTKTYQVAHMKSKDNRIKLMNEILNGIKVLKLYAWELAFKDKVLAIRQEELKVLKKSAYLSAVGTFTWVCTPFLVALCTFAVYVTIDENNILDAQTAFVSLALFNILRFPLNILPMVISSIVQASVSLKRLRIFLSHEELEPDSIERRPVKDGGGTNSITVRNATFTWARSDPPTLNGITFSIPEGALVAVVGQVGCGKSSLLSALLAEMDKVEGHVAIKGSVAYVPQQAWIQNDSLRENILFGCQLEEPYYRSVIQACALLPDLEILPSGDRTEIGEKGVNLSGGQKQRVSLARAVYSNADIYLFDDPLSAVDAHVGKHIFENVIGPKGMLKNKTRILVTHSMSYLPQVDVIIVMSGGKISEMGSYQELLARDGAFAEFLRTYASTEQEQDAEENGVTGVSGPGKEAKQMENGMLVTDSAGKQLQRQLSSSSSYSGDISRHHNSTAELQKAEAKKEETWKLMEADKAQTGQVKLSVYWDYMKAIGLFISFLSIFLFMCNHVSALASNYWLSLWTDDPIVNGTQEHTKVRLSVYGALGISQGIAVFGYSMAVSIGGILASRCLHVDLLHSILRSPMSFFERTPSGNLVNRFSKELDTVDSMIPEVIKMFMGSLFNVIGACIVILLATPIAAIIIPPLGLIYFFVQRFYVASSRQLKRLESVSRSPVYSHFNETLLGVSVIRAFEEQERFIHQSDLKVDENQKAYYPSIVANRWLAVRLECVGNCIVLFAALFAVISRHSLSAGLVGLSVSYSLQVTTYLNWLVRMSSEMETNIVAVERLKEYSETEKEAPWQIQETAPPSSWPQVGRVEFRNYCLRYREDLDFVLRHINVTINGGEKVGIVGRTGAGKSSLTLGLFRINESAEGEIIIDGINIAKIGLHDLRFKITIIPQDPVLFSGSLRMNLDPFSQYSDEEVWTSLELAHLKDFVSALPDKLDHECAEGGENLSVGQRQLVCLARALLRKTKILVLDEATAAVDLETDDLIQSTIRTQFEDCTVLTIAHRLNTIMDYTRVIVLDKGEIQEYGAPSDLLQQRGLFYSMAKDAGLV

Q: With `COc1cc2c(c3oc(=O)c4c(c13)CCC4=O)[C@H]1[C@@H](O2)O[C@H](SC[C@@H](NC(=O)CC[C@H](N)C(=O)O)C(=O)NCC(=O)O)[C@H]1O` as the molecule, how does the Km read?
A: The Km was 0.189 µM.
